Results from PubChem BioAssay AID328 (DTP/NCI, 2004).
Values joined by “and” are separate entries in the source; they are usually repeats but may differ in a detail not shown here. Equal entries are not always repeated. Inconclusive results and toxic doses are left out.

System: BDF1 mice, P388 leukemia ip, median survival T/C
Test: NCI In Vivo Anticancer Drug Screen. Data for tumor model P388 Leukemia (intraperitoneal) in B6D2F1 (BDF1) mice
Conditions: endpoint: median survival time, higher = longer survival
How it was run: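 Steps: implant the tumour, treat one group with compound and another with vehicle, record survival, then divide treated by control.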

[1] = dose: 50.0 mg/kg/injection, schedule: Q04DX003 (ip), vehicle: saline
[2] = dose: 100.0 mg/kg/injection, schedule: Q04DX003 (ip), vehicle: saline
[3] = dose: 100.0 mg/kg/injection, schedule: Q01DX009 (ip), vehicle: saline with Tween-80
[4] = dose: 200.0 mg/kg/injection, schedule: Q01DX009 (ip), vehicle: saline with Tween-80
[5] = dose: 50.0 mg/kg/injection, schedule: Q01DX009 (ip), vehicle: saline with Tween-80

COc1cc2cc(c1Cl)N(C)C(=O)C[C@H](OC(=O)[C@H](C)N(C)C(C)=O)[C@]1(C)O[C@H]1[C@H](C)[C@@H]1C[C@@](O)(NC(=O)O1)[C@H](OC)C=C/C=C(\C)C2
T/C (dose: 1.6 micrograms/kg/injection, schedule: Q01DX009 (ip), vehicle: saline): 155 % of control | T/C (dose: 2.0 micrograms/kg/injection, schedule: Q08DX002 (ip), vehicle: saline): 104 % of control | T/C (dose: 3.1 micrograms/kg/injection, schedule: Q01DX009 (ip), vehicle: saline): 165 % of control | T/C (dose: 4.0 micrograms/kg/injection, schedule: Q08DX002 (ip), vehicle: saline): 111 % of control and 117 % of control | T/C (dose: 6.2 micrograms/kg/injection, schedule: Q01DX009 (ip), vehicle: saline): 195 % of control | T/C (dose: 8.0 micrograms/kg/injection, schedule: Q08DX002 (ip), vehicle: saline): 122 % of control and 123 % of control | T/C (dose: 10.0 micrograms/kg/injection, schedule: Q03HX024 (ip), vehicle: saline): 194 % of control | T/C (dose: 12.5 micrograms/kg/injection, schedule: Q01DX009 (ip), vehicle: saline): 190 % of control | T/C (dose: 15.0 micrograms/kg/injection, schedule: Q03HX024 (ip), vehicle: saline): 238 % of control | T/C (dose: 20.0 micrograms/kg/injection, schedule: Q03HX024 (ip), vehicle: saline): 176 % of control | T/C (dose: 25.0 micrograms/kg/injection, schedule: Q01DX009 (ip), vehicle: saline): 220 % of control | T/C (dose: 25.0 micrograms/kg/injection, schedule: Q03HX024 (ip), vehicle: saline): 188 % of control | T/C (dose: 30.0 micrograms/kg/injection, schedule: Q03HX024 (ip), vehicle: saline): 527 % of control | T/C (dose: 32.0 micrograms/kg/injection, schedule: Q08DX002 (ip), vehicle: clinical formulation): 191 % of control | T/C (dose: 35.0 micrograms/kg/injection, schedule: Q03HX024 (ip), vehicle: saline): 194 % of control | T/C (dose: 40.0 micrograms/kg/injection, schedule: Q03HX024 (ip), vehicle: saline): 188 % of control | T/C (dose: 50.0 micrograms/kg/injection, schedule: Q04DX003 (ip), vehicle: clinical formulation): 203 % of control | T/C (dose: 54.0 micrograms/kg/injection, schedule: Q04DX003 (ip), vehicle: clinical formulation): 192 % of control | T/C (dose: 64.0 micrograms/kg/injection, schedule: Q08DX002 (ip), vehicle: clinical formulation): 155 % of control and 169 % of control | T/C (dose: 64.0 micrograms/kg/injection, schedule: Q08DX002 (ip), vehicle: saline): 163 % of control | T/C (dose: 90.0 micrograms/kg/injection, schedule: Q04DX003 (ip), vehicle: clinical formulation): 200 % of control | T/C (dose: 100.0 micrograms/kg/injection, schedule: Q04DX003 (ip), vehicle: clinical formulation): 183 % of control | T/C (dose: 108.0 micrograms/kg/injection, schedule: Q04DX003 (ip), vehicle: saline): 172 % of control | T/C (dose: 128.0 micrograms/kg/injection, schedule: Q08DX002 (ip), vehicle: clinical formulation): 167 % of control and 182 % of control | T/C (dose: 128.0 micrograms/kg/injection, schedule: Q08DX002 (ip), vehicle: saline): 183 % of control and 193 % of control | T/C (dose: 150.0 micrograms/kg/injection, schedule: Q04DX003 (ip), vehicle: clinical formulation): 224 % of control | T/C (dose: 180.0 micrograms/kg/injection, schedule: Q04DX003 (ip), vehicle: saline): 159 % of control | T/C (dose: 200.0 micrograms/kg/injection, schedule: Q04DX003 (ip), vehicle: clinical formulation): 194 % of control | T/C (dose: 250.0 micrograms/kg/injection, schedule: Q04DX003 (ip), vehicle: clinical formulation): 224 % of control | T/C (dose: 256.0 micrograms/kg/injection, schedule: Q08DX002 (ip), vehicle: clinical formulation): 197 % of control and 204 % of control | T/C (dose: 256.0 micrograms/kg/injection, schedule: Q08DX002 (ip), vehicle: saline): 203 % of control and 219 % of control | T/C (dose: 300.0 micrograms/kg/injection, schedule: Q04DX003 (ip), vehicle: saline): 180 % of control | T/C (dose: 512.0 micrograms/kg/injection, schedule: Q08DX002 (ip), vehicle: clinical formulation): 227 % of control | T/C (dose: 512.0 micrograms/kg/injection, schedule: Q08DX002 (ip), vehicle: saline): 272 % of control and 219 % of control | T/C (dose: 1024.0 micrograms/kg/injection, schedule: Q08DX002 (ip), vehicle: clinical formulation): 242 % of control | T/C (dose: 1024.0 micrograms/kg/injection, schedule: Q08DX002 (ip), vehicle: saline): 88 % of control and 117 % of control

CC1CN1P(=O)(N1CC1C)N1CC1C (stereo not drawn)
T/C (dose: 25.0 mg/kg/injection, schedule: Q01DX009 (ip), vehicle: saline): 100 % of control | T/C (dose: 33.0 mg/kg/injection, schedule: Q04DX003 (ip), vehicle: saline): 222 % of control | T/C (dose: 50.0 mg/kg/injection, schedule: Q01DX009 (ip), vehicle: saline): 105 % of control | T/C [1]: 177 % of control and 186 % of control | T/C (dose: 75.0 mg/kg/injection, schedule: Q04DX003 (ip), vehicle: saline): 250 % of control and 116 % of control | T/C [2]: 236 % of control

Nc1c(Br)cc2c(c1Br)Cc1cc(Br)ccc1-2
T/C [3]: 91 % of control | T/C [4]: 87 % of control

O=[N+]([O-])c1ccc(Sc2ccc([N+](=O)[O-])cc2)cc1
T/C [5]: 90 % of control | T/C (dose: 50.0 mg/kg/injection, schedule: Q04DX003 (ip), vehicle: saline with Tween-80): 100 % of control | T/C [3]: 95 % of control | T/C [4]: 90 % of control | T/C (dose: 200.0 mg/kg/injection, schedule: Q04DX003 (ip), vehicle: saline with Tween-80): 100 % of control

O=COC1CC2CC1C1CCCC21 (stereo not drawn)
T/C [5]: 122 % of control | T/C [1]: 100 % of control | T/C [3]: 109 % of control | T/C [2]: 96 % of control | T/C (dose: 200.0 mg/kg/injection, schedule: Q04DX003 (ip), vehicle: saline): 100 % of control

COCCc1ccncc1
T/C [3]: 101 % of control | T/C [4]: 97 % of control

CC[C@@]1(O)C[C@H](OC2CC(N(C)C)C(OC3CC(O)C(OC4CCC(=O)C(C)O4)C(C)O3)C(C)O2)c2c(cc3c(c2O)C(=O)c2c(O)ccc(O)c2C3=O)[C@H]1C(=O)OC (stereo partly drawn)
T/C (dose: 0.39 mg/kg/injection, schedule: Q01DX009 (ip), vehicle: water): 111 % of control | T/C (dose: 0.5 mg/kg/injection, schedule: Q01DX003 (ip), vehicle: saline): 163 % of control | T/C (dose: 0.5 mg/kg/injection, schedule: Q01DX009 (ip), vehicle: water): 117 % of control | T/C (dose: 0.65 mg/kg/injection, schedule: Q01DX009 (ip), vehicle: water): 152 % of control | T/C (dose: 0.75 mg/kg/injection, schedule: Q01DX010 (ip), vehicle: saline): 170 % of control | T/C (dose: 1.0 mg/kg/injection, schedule: Q01DX003 (ip), vehicle: saline): 190 % of control | T/C (dose: 1.0 mg/kg/injection, schedule: Q01DX009 (ip), vehicle: saline): 154 % of control | T/C (dose: 1.0 mg/kg/injection, schedule: Q01DX009 (ip), vehicle: water): 86 % of control | T/C (dose: 1.0 mg/kg/injection, schedule: Q04DX003 (ip), vehicle: water): 102 % of control | T/C (dose: 1.08 mg/kg/injection, schedule: Q01DX009 (ip), vehicle: water): 177 % of control and 180 % of control | T/C (dose: 1.5 mg/kg/injection, schedule: Q01DX010 (ip), vehicle: saline): 175 % of control | T/C (dose: 1.73 mg/kg/injection, schedule: Q04DX003 (ip), vehicle: other): 155 % of control | T/C (dose: 1.8 mg/kg/injection, schedule: Q01DX009 (ip), vehicle: water): 225 % of control and 200 % of control | T/C (dose: 2.0 mg/kg/injection, schedule: Q01DX003 (ip), vehicle: saline): 109 % of control | T/C (dose: 2.0 mg/kg/injection, schedule: Q01DX009 (ip), vehicle: saline): 191 % of control | T/C (dose: 2.0 mg/kg/injection, schedule: Q01DX009 (ip), vehicle: water): 90 % of control | T/C (dose: 2.0 mg/kg/injection, schedule: Q04DX003 (ip), vehicle: water): 119 % of control | T/C (dose: 2.88 mg/kg/injection, schedule: Q04DX003 (ip), vehicle: other): 186 % of control | T/C (dose: 3.0 mg/kg/injection, schedule: Q01DX010 (ip), vehicle: saline): 90 % of control | T/C (dose: 4.8 mg/kg/injection, schedule: Q04DX003 (ip), vehicle: other): 109 % of control | T/C (dose: 5.0 mg/kg/injection, schedule: Q04DX003 (ip), vehicle: water): 203 % of control | T/C (dose: 8.44 mg/kg/injection, schedule: Q01DX001 (ip), vehicle: water): 158 % of control | T/C (dose: 10.0 mg/kg/injection, schedule: Q04DX003 (ip), vehicle: water): 88 % of control | T/C (dose: 11.25 mg/kg/injection, schedule: Q01DX001 (ip), vehicle: water): 152 % of control | T/C (dose: 13.33 mg/kg/injection, schedule: Q04DX003 (ip), vehicle: water): 117 % of control | T/C (dose: 15.0 mg/kg/injection, schedule: Q01DX001 (ip), vehicle: water): 100 % of control | T/C (dose: 20.0 mg/kg/injection, schedule: Q01DX001 (ip), vehicle: water): 50 % of control
